Measured values published in ChEMBL document CHEMBL1909558, “Discovery, synthesis and SAR analysis of novel selective small molecule S1P4-R agonists based on a (2Z,5Z)-5-((pyrrol-3-yl)methylene)-3-alkyl-2-(alkylimino)thiazolidin-4-one chemotype” (Bioorg Med Chem Lett, 2011).
pEC50: −log10 of the molar value. Each block holds one molecule with its values, some of them ahead of it. Calls of active or inactive are those of the source. The calls are words filed in the database; no cut-off is given here.

What was measured:
[1] = molecular target: T1, Sphingosine 1-phosphate receptor 4 (Homo sapiens, UniProt O95977); experiment: Agonist activity at S1P4 receptor in human U2OS cells expressing VP16-GAL4 transcriptional factor and beta-arrestin/TEV protease fusion protein assessed as migration of VP16-GAL4 into nucleus by FRET based beta lactamase reporter gene assay; format: functional, cell-based
T1 sequence (O95977 whole entry): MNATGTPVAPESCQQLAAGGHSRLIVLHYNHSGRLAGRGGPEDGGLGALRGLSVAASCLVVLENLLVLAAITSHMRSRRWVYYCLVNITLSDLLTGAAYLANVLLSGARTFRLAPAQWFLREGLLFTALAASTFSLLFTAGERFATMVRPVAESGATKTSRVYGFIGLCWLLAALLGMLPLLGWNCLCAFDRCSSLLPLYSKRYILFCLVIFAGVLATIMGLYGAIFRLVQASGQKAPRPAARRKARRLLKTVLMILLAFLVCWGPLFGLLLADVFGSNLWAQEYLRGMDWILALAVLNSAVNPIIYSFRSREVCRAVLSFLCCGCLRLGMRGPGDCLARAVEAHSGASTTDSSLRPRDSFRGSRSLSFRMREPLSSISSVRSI

[2] = molecular target: T2, Sphingosine 1-phosphate receptor 4 (Homo sapiens) (UniProt O95977); experiment: Agonist activity at S1P4 receptor in human U2OS cells expressing VP16-GAL4 transcriptional factor and beta-arrestin/TEV protease fusion protein assessed as migration of VP16-GAL4 into nucleus at 25 uM by FRET based beta lactamase reporter gene assay; format: functional, cell-based
T2 sequence (whole entry): T1 sequence (O95977 whole entry)

[3] = molecular target: T3, Sphingosine 1-phosphate receptor 2 (Homo sapiens, UniProt O95136); experiment: Agonist activity at S1P2 receptor at 25 uM; format: functional
T3 sequence (O95136 whole entry): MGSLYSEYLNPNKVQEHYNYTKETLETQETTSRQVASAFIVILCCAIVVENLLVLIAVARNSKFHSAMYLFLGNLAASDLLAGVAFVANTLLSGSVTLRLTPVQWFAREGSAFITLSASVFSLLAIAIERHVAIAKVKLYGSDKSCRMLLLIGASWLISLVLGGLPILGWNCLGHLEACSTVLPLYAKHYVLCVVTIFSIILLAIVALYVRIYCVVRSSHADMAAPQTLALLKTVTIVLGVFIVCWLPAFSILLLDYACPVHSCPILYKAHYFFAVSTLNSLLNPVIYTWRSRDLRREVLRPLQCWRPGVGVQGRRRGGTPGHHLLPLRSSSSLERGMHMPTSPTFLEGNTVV

[4] = molecular target: Sphingosine 1-phosphate receptor 3 (Homo sapiens) (UniProt Q99500); experiment: Agonist activity at S1P3 receptor at 25 uM; format: functional
Sphingosine 1-phosphate receptor 3 (Homo sapiens), sequence (Q99500 whole entry): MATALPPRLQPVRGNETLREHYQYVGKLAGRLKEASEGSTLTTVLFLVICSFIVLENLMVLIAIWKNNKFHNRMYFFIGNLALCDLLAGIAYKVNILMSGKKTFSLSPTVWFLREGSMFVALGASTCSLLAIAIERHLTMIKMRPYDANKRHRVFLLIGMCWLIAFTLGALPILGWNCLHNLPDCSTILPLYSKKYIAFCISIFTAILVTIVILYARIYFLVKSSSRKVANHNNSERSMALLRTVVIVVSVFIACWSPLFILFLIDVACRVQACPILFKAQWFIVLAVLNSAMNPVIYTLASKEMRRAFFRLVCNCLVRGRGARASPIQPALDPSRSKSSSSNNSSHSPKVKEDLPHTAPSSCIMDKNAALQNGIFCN

[5] = molecular target: T4, Sphingosine 1-phosphate receptor 5 (Homo sapiens, UniProt Q9H228); experiment: Agonist activity at S1P5 receptor at 25 uM; format: functional
T4 sequence (Q9H228 whole entry): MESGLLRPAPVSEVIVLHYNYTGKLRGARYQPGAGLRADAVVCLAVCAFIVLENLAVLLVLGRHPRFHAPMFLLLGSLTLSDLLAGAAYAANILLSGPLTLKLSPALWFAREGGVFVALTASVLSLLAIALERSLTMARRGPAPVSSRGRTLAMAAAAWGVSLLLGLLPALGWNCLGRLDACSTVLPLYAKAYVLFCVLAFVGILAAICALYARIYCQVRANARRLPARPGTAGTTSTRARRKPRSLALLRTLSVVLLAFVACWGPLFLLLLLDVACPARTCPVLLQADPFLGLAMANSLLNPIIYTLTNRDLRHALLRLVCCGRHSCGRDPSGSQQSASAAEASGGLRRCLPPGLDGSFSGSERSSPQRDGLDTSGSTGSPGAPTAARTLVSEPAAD

[6] = molecular target: T5, Sphingosine 1-phosphate receptor 1 (Homo sapiens, UniProt P21453); experiment: Agonist activity at S1P1 receptor at 25 uM; format: functional
T5 sequence (P21453 whole entry): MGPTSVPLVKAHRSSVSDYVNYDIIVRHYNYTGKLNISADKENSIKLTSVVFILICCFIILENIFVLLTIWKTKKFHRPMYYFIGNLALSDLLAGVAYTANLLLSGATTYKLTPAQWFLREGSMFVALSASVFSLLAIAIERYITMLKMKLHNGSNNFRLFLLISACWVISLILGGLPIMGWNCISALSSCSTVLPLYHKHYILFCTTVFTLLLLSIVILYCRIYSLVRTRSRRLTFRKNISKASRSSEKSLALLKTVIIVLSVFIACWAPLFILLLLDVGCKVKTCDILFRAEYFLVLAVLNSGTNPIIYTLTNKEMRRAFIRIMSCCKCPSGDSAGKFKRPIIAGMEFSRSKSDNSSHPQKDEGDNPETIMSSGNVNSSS

[7] = molecular target: T2, Sphingosine 1-phosphate receptor 4 (Homo sapiens); experiment: Agonist activity at S1P4 receptor relative to control; format: functional
[8] = molecular target: T5, Sphingosine 1-phosphate receptor 1; experiment: Agonist activity at S1P1 receptor at 8.3 uM; format: functional
[9] = molecular target: T4, Sphingosine 1-phosphate receptor 5; experiment: Agonist activity at S1P5 receptor at 8.3 uM; format: functional
[10] = molecular target: T3, Sphingosine 1-phosphate receptor 2; experiment: Agonist activity at S1P2 receptor; format: functional
[11] = molecular target: T4, Sphingosine 1-phosphate receptor 5; experiment: Agonist activity at S1P5 receptor; format: functional
[12] = molecular target: T5, Sphingosine 1-phosphate receptor 1; experiment: Agonist activity at S1P1 receptor; format: functional
[13] = molecular target: T5, Sphingosine 1-phosphate receptor 1; experiment: Agonist activity at S1P1 receptor relative to control; format: functional
[14] = molecular target: T4, Sphingosine 1-phosphate receptor 5; experiment: Agonist activity at S1P5 receptor relative to control; format: functional
[15] = molecular target: T5, Sphingosine 1-phosphate receptor 1; experiment: Antagonist activity at S1P1 receptor at 25 uM; format: functional
UOS2 [16] = experiment: Selectivity ratio of EC50 for S1P5 receptor to EC50 for S1P4 receptor in human […] cells; format: cell-based
UOS2 [17] = experiment: Selectivity ratio of EC50 for S1P1 receptor to EC50 for S1P4 receptor in human […] cells; format: cell-based

- pEC50 [1]: 5.74
SMILES: C/N=C1\S/C(=C\c2cc(C)n(-c3ccccn3)c2C)C(=O)N1C

- pEC50 [1]: 5.77
SMILES: C/N=C1\S/C(=C\c2cc(C)n(-c3ccc(F)cc3F)c2C)C(=O)N1CCOC

- Activity [2]: inactive
SMILES: C/N=C1/NC(=O)/C(=C/c2cnn(-c3ccc(F)cc3F)c2)S1

- Activity [3]: inactive
- Activity [4]: inactive
- Activity [5]: inactive
- Activity [6]: inactive
- pEC50 [1]: 6.60
SMILES: CC/N=C1\S/C(=C\c2cc(C)n(-c3ccccc3F)c2C)C(=O)N1CC

- Efficacy [7]: 70%
- pEC50 [1]: 5.27
SMILES: CC/N=C1\S/C(=C\c2cc(C)n(-c3ncccc3F)c2C)C(=O)N1CC

- Activity [2]: inactive
SMILES: CCCC/N=C1\S/C(=C\c2cc(C)n(-c3ccccc3F)c2C)C(=O)N1CCCC

- Efficacy [8]: 20%
- Activity [3]: inactive
- Activity [4]: inactive
- pEC50 [1]: 6.51
- Efficacy [9]: 60%
SMILES: Cc1cc(/C=C2\S/C(=N\CCO)N(C)C2=O)c(C)n1-c1ccccc1F

- Efficacy [7]: 60%
- pEC50 [1]: 5.80
SMILES: C/N=C1\S/C(=C\c2cc(C)n(-c3cccc(F)c3)c2C)C(=O)N1C

- Activity [2]: inactive
SMILES: C/N=C1/NC(=O)/C(=C/c2c(C)n(Cc3ccccc3)c3ccccc23)S1

- Activity [4]: inactive
- pEC50 [10]: 5.44
- pEC50 [1]: 6.58
- pEC50 [11]: 6.84
- pEC50 [12]: 6.14
SMILES: C/N=C1\S/C(=C\c2cc(C)n(Cc3ccccc3)c2C)C(=O)N1C

- pEC50 [1]: 7.44
- pEC50 [11]: 8.09
- pEC50 [12]: 7.68
SMILES: CCCCCCCCc1ccc2nc([C@@H](N)COP(=O)(O)O)[nH]c2c1

- pEC50 [1]: 6.00
SMILES: C/N=C1/NC(=O)/C(=C/c2cc(C)n(-c3ccc(F)cc3F)c2C)S1

- Activity [2]: inactive
SMILES: Cc1cc(/C=C2\S/C(=N\C(C)C)N(C(C)C)C2=O)c(C)n1-c1ccccc1F

- Activity [2]: inactive
SMILES: COCC/N=C1\S/C(=C\c2cc(C)n(Cc3ccccc3)c2C)C(=O)N1CCOC

- Activity [3]: inactive
- Activity [4]: inactive
- pEC50 [1]: 6.36
- pEC50 [11]: 5.47
- pEC50 [12]: 5.52
SMILES: C/N=C1\S/C(=C\c2cc(C)n(-c3ccc(Cl)cc3F)c2C)C(=O)N1C

- Activity [2]: inactive
SMILES: Cc1cc(/C=C2\SC(=O)N(C)C2=O)c(C)n1-c1ccccc1F

- Activity [3]: inactive
- Activity [4]: inactive
- pEC50 [1]: 6.22
- pEC50 [11]: 6.63
- pEC50 [12]: 7.17
SMILES: CC/N=C1\S/C(=C\c2cc(C)n(-c3ccccc3)c2C)C(=O)N1CC

- Activity [2]: inactive
SMILES: C/N=C1/NC(=O)/C(=C/c2cnn(-c3ccccc3F)c2)S1

- pEC50 [12]: < 5.00
SMILES: CCCCCCCCc1ccc([C@H]2C[C@H](COP(=O)(O)O)N[C@@H]2CO)cc1

- Efficacy [7]: 50%
- pEC50 [1]: 5.49
SMILES: C/N=C1\S/C(=C\c2cc(C)n(-c3ccc(F)c(C#N)c3)c2C)C(=O)N1C

- Activity [2]: inactive
SMILES: CC/N=C1\S/C(=C\c2cc(C)n(-c3cccc4ccccc34)c2C)C(=O)N1CC

- pEC50 [1]: 5.44
SMILES: C/N=C1/NC(=O)/C(=C/c2cc(C)n(-c3ccccc3F)c2C)S1

- Activity [2]: inactive
SMILES: C/N=C1\S/C(=C\c2cc(C)n(-c3ccccc3C)c2C)C(=O)N1C

- Activity [2]: inactive
SMILES: Cc1cc(/C=C2\SC(=N)NC2=O)c(C)n1-c1ccccc1F

- Activity [2]: inactive
SMILES: C/N=C1\S/C(=C\c2cc(C)n(-c3ccc(OC)c(C(F)(F)F)c3)c2C)C(=O)N1C

- Activity [2]: inactive
SMILES: CC/N=C1\S/C(=C\c2cc(C)n(CCc3ccccc3)c2C)C(=O)N1CC

- Efficacy [3]: 60%
- Efficacy [4]: 25%
- pEC50 [1]: 7.14
- pEC50 [11]: 7.29
- pEC50 [12]: 6.60
SMILES: C/N=C1\S/C(=C\c2cc(C)n(Cc3ccccc3F)c2C)C(=O)N1C

- Activity [2]: inactive
SMILES: C/N=C1\S/C(=C\c2cc(C)n(-c3cccc4ccccc34)c2C)C(=O)N1C

- Activity [2]: inactive
SMILES: CCC/N=C1\NC(=O)/C(=C/c2cc(C)n(-c3ccccc3F)c2C)S1

- Activity [2]: inactive
SMILES: C/N=C1\S/C(=C\c2cc(C)n(-c3ccccc3Br)c2C)C(=O)N1C

- pEC50 [1]: 5.42
SMILES: C/N=C1/NC(=O)/C(=C/c2cnn(-c3ccc(F)cc3)c2C)S1

- Efficacy [13]: 70%
- Activity [3]: inactive
- Activity [4]: inactive
- pEC50 [1]: 6.36
- Efficacy [14]: 50%
- pEC50 [11]: 6.19
- pEC50 [12]: 5.74
SMILES: C/N=C1\S/C(=C\c2cc(C)n(-c3ccc(F)cc3)c2C)C(=O)N1C

- Activity [2]: inactive
SMILES: C/N=C1\S/C(=C\c2cc(C)n(-c3cc(C)ccc3OC)c2C)C(=O)N1C

- pEC50 [1]: 6.40
SMILES: Cc1cc(/C=C2\S/C(=N\CCO)N(C)C2=O)c(C)n1Cc1ccccc1

- Efficacy [7]: 20%
- pEC50 [1]: 6.18
SMILES: C/N=C1\S/C(=C\c2cc(C)n(CCc3ccccc3)c2C)C(=O)N1C

- Activity [2]: inactive
SMILES: C/N=C1/NC(=O)/C(=C/c2ccn(Cc3ccccc3)c2)S1

- Activity [2]: inactive
SMILES: CCC/N=C1\S/C(=C\c2cc(C)n(-c3ccccc3F)c2C)C(=O)N1CCC

- Activity [3]: inactive
- Activity [4]: inactive
- pEC50 [1]: 6.83
- pEC50 [11]: 7.43
- pEC50 [12]: 6.54
SMILES: C/N=C1\S/C(=C\c2cc(C)n(Cc3ccc(F)cc3F)c2C)C(=O)N1C

- Activity [2]: inactive
SMILES: C/N=C1/NC(=O)/C(=C/c2ccn(-c3ccccc3F)c2)S1

- Efficacy [7]: 70%
- pEC50 [1]: 5.68
SMILES: Cc1cc(/C=C2\S/C(=N\c3ccccn3)NC2=O)c(C)n1-c1ccccc1F

- Activity [2]: inactive
SMILES: CC/N=C1\NC(=O)/C(=C/c2cc(C)n(-c3ccccc3F)c2C)S1

- Efficacy [3]: 120%
- Efficacy [4]: 70%
- pEC50 [1]: 7.04
- pEC50 [11]: 7.47
- pEC50 [12]: 7.47
SMILES: C/N=C1\S/C(=C\c2cc(C)n(Cc3c(F)cccc3F)c2C)C(=O)N1C

- Activity [3]: inactive
- Activity [4]: inactive
- pEC50 [1]: 6.98
- pEC50 [11]: 5.21
- pEC50 [12]: 6.09
SMILES: CC/N=C1\S/C(=C\c2cc(C)n(-c3ccc(F)cc3F)c2C)C(=O)N1CC

- pEC50 [1]: 5.55
SMILES: Cc1cc(/C=C2\S/C(=N\c3ccccc3)N(C)C2=O)c(C)n1-c1ccccc1F

- Activity [3]: inactive
- Activity [4]: inactive
- pEC50 [1]: 6.69
- Efficacy [14]: 70%
- pEC50 [11]: 6.14
- pEC50 [12]: 6.09
SMILES: C/N=C1\S/C(=C\c2cc(C)n(-c3ccccc3F)c2C)C(=O)N1C

- Activity [2]: inactive
SMILES: C/N=C1\S/C(=C\c2cc(C)n(-c3ccccc3Cl)c2C)C(=O)N1C

- pEC50 [1]: 8.00
- pEC50 [11]: 5.62
- pEC50 [12]: < 5.00
SMILES: N[C@H](CNC(=O)c1cc2c(-c3ccccc3Cc3ccccc3)cccc2[nH]1)C(=O)O

- Activity [3]: inactive
- Activity [4]: inactive
- inhibition [15]: 85%
- pEC50 [1]: 7.17
- Efficacy [14]: 80%
- pEC50 [11]: 6.71
SMILES: COCC/N=C1\S/C(=C\c2cc(C)n(Cc3ccccc3)c2C)C(=O)N1C

- Activity [3]: inactive
- Activity [4]: inactive
- Activity [6]: inactive
- pEC50 [1]: 7.25
- pEC50 [11]: 5.68
SMILES: COCC/N=C1\S/C(=C\c2cc(C)n(-c3ccc(F)cc3F)c2C)C(=O)N1C
- Ratio EC50 (UOS2 [16]): 37

- Activity [3]: inactive
- Activity [4]: inactive
- Activity [5]: inactive
- pEC50 [1]: 6.68
- pEC50 [12]: 5.35
SMILES: C/N=C1\S/C(=C\c2cc(C)n(-c3ccc(F)cc3F)c2C)C(=O)N1C
- Ratio EC50 (UOS2 [17]): 21

- Efficacy [7]: 70%
- pEC50 [1]: 5.51
SMILES: C/N=C1\S/C(=C\c2cc(C)n(-c3ncccc3F)c2C)C(=O)N1C

- Activity [3]: inactive
- Activity [4]: inactive
- pEC50 [1]: 6.50
- pEC50 [11]: 7.66
- pEC50 [12]: 7.74
SMILES: CC/N=C1\S/C(=C\c2cc(C)n(Cc3c(F)cccc3F)c2C)C(=O)N1CC

- Activity [2]: inactive
SMILES: C/N=C1\S/C(=C\c2cc(C)n(-c3ccc(C)cc3C)c2C)C(=O)N1C

- Activity [2]: inactive
SMILES: C/N=C1/NC(=O)/C(=C/c2c(C)nn(-c3ccc(F)cc3)c2C)S1

- Activity [2]: inactive
SMILES: C/N=C1\O/C(=C\c2cc(C)n(-c3ccccc3F)c2C)C(=O)N1C

- Activity [2]: inactive
SMILES: Cc1cc(/C=C2\S/C(=N\c3ccccc3)NC2=O)c(C)n1-c1ccccc1F
